Publication PMC5708337 (2017)

Tests used:
[1] = system: hTeloCBiotin (DNA, i motif) TAACCCTAACCCTAACCCTAACCC; experiment: SPR, single concentration; details: Na+ (100 mM NaCl, 10 mM sodium cacodylate), pH 5.5, 0.05% Tween-20, 5% DMSO, 50 μM compound; for binding: NB
[2] = system: c-MycCBiotin (DNA, i motif) CCTTCCCCACCCTCCCCACCCTCCCCA; experiment: SPR, single concentration; details: Na+ (100 mM NaCl, 10 mM sodium cacodylate); pH 5.5, 0.05% Tween-20, 5% DMSO; 50 μM compound
[3] = system: DSbiotin (DNA, duplex) GGCATAGTGCGTGGGCGTTAGC/GCTAACGCCCACGCACTATGCC; experiment: SPR, single concentration; details: Na+ (100 mM NaCl, 10 mM sodium cacodylate); pH 5.5, 0.05% Tween-20, 5% DMSO; 50 μM compound
[4] = system: hTeloC (DNA, i motif) TAACCCTAACCCTAACCCTAACCC; experiment: fluorescent intercalator displacement; details: Na+ (10 mM sodium cacodylate); pH 5.5; thiazole orange 2 μM displaced; 1 μM DNA
[5] = system: hTeloCBiotin (DNA, i motif) TAACCCTAACCCTAACCCTAACCC; experiment: SPR; details: Na+ (100 mM NaCl, 10 mM sodium cacodylate); pH 5.5, 0.05% Tween-20, 5% DMSO
[6] = system: c-MycCBiotin (DNA, i motif) CCTTCCCCACCCTCCCCACCCTCCCCA; experiment: SPR; details: Na+ (100 mM NaCl, 10 mM sodium cacodylate); pH 5.5, 0.05% Tween-20, 5% DMSO
[7] = system: DSbiotin (DNA, duplex) GGCATAGTGCGTGGGCGTTAGC/GCTAACGCCCACGCACTATGCC; experiment: SPR; details: Na+ (100 mM NaCl, 10 mM sodium cacodylate); pH 5.5, 0.05% Tween-20, 5% DMSO

Structure (SMILES) | binding [1] | %Rmax [2] | %Rmax [3] | %Rmax [1] | DC50 [4] | Kd [5] | Kd [6] | Kd [7]
CC1=NCCc2c1[nH]c1cc(O)ccc21 | no | 64% | 123% | – | – | – | – | –
CCN(CC)CCOc1ccc2c(c1)C(=O)c1cc(OCCN(CC)CC)ccc1-2 | – | 420% | 811% | 116% | 2.4 µM | – | – | –
CCN(CC)Cc1cc(Nc2ccnc3cc(Cl)ccc23)ccc1O | – | 31% | 59% | 15% | – | – | – | –
CN(C)c1ccc(O)c2c1C[C@H]1C[C@H]3[C@H](N(C)C)C(O)=C(C(N)=O)C(=O)[C@@]3(O)C(O)=C1C2=O | – | 36% | 69% | 29% | – | – | – | –
NC[C@H]1O[C@H](O[C@H]2[C@H](O)[C@@H](O[C@H]3O[C@H](CO)[C@@H](O)[C@H](N)[C@H]3O)[C@H](N)C[C@@H]2N)[C@H](N)C[C@@H]1O | – | 121% | 233% | 325% | 2.9 µM | 17 ± 2.0 µM | 13 ± 1.8 µM | 18 ± 1.1 µM
Nc1ccc(N=Nc2ccccc2)c(N)n1 | – | 71% | 137% | 38% | – | – | – | –
O=C1c2c(O)ccc(O)c2C(=O)c2c(NCCNCCO)ccc(NCCNCCO)c21 | – | 2534% | 4894% | 2125% | 1.8 µM | – | – | –
O=C1c2ccc(O)c(O)c2C(=O)c2c(O)ccc(O)c21 | no | 49% | 95% | – | – | – | – | –
